Assay type in all cases: cell-based
In experiment [1] the test system is N-Myc-Max transcription activity (LNCaP-NMYC cells). The experiment is described as follows: Myc transcription assay (Cignal Myc reporter, luciferase) in LNCaP-NMYC cells. Conditions: LNCaP-NMYC, screened at 10 µM and 5 µM. As for the experimental part: To determine the optimal substitutions on the free phenyl ring, we used the active scaffold for a second substructure search against the ZINC15 database to identify a set of 181 analogues for further validation (VPC-70617 to -70799, presented in Supplementary Table S1). Compounds were tested for their inhibition of a N-Myc-Max luciferase transcription activity assay at 5 and 10 µM Figure 2a. Herein, we inspected all the proposed substitutions on the scaffold to discern the features required to construct a possible SAR model for inhibitors targeting N-Myc-Max/DBD complex (Figure 2b).
LNCaP-NMYC cells were transfected using TransIT-2020 transfection reagents per the manufacturer’s protocol. Cells were plated at a density of 10,000 cells per well of a 96-well plate. Following 24 h treatment with 5 µM or 10 µM of the compounds, the Myc reporter activity was measured using the Cignal Myc Reporter Assay Kit from Qiagen (#336841) (Hilden, Germany) per the manufacturer’s instructions.

The next experiment concerns IMR32 cells. The experiment is described as follows: Cell viability (CellTiter-Glo), IMR32. The settings on record: Homo sapiens, IMR-32. As for the experimental part:
(§1) The 54 compounds were tested at 10 µM for their inhibition of the IMR32 human neuroblastoma cell line, in which the MYCN gene is amplified and actively expressed (Table 3). HO15.19 cell line (Myc-negative) was used in parallel as a compound specificity control.
(§2) Viability of N-Myc positive (IMR32and NCI-H660) and negative (HO15.19) cells were determined using the CellTiter-Glo Luminescent Cell Viability Assay (Promega cat. G7570) (Madison, WI, USA). Cells were seeded into a 96-well white plate with a clear bottom: 10,000 cells per well for the IMR32 cells cultured in EMEM supplemented with 10% FBS, 2000 HO15.19 cells per well in Eagle’s minimum essential medium (EMEM) supplemented with 10% FBS, and 2000 cells per well for the NCI-H660 neuroendocrine cells cultured in RPMI supplemented 5% FBS, 1% Insulin-Transferrin-Selenium (Thermo Fisher, 41400-045), 10nM b-estradiol (Sigma, E8875), 10nM hydrocortisone (Sigma H0888) and 1% matrigel. Following 24 h incubation, the cells were treated with serial dilutions of the derivatives along with the respective parental compound starting at 25 μM for 72 h. Cell Titer Glo was added to each well at a ratio of 1:1 and incubated on a shaker at RT for 2 min. Luminescence and IC50 was measured with the TECAN InfiniteM200 plate reader (Männedorf, Switzerland).
In general terms: Cellular ATP, detected with luciferase, serves as a proxy for viable cell number.

A further experiment concerns HO15.19 cells. The experiment in a line: Cell viability counter-screen (CellTiter-Glo), Myc-negative HO15.19. Conditions: Rattus norvegicus, HO15.19, 10 µM; Myc-negative specificity control. As for the experimental part: as §1, §2
(A counterscreen serves to expose hits that act by an unwanted route or on another target.)

For the compound `N#Cc1ccc(NNC(=O)c2cc(Cl)ccc2O)c(C(F)(F)F)c1` [compound 70640], the “transcription inhibition activity (in words)” value in experiment [1] was “better inhibition activity”. Further, the inhibition (as a rule, the percentage by which the read-out fell short of the control) at 10 µM with IMR32 cells stood at 93.5%; in the experiment with HO15.19 cells it was 76.7%.
The like results for `N#Cc1ccc(NNC(=O)c2ccc(Cl)c(Br)c2)c(C(F)(F)F)c1` [compound 70622] were, in that order, “good inhibition at both concentrations tested”, 99.4% and 36.4%.
In the case of `N#Cc1ccc(NNC(=O)c2ccc(C(F)(F)F)c(Cl)c2)c(C(F)(F)F)c1` [compound 70705], the “transcription inhibition activity (in words)” value in experiment [1] is recorded as “good inhibition at both concentrations tested”. Further, the inhibition at 10 µM in the experiment with IMR32 cells was found to be 60.7%; in the experiment on HO15.19 cells, 61.8%.
The matching figures for `N#Cc1ccc(NNC(=O)c2ccc(C(F)(F)F)cc2O)c(C(F)(F)F)c1` [compound 70797]: “activity was maintained”, 24.7% and 34.2%.
Regarding `N#Cc1ccc(NNC(=O)c2ccc(F)c(Br)c2)c(C(F)(F)F)c1` [compound 70734], in experiment [1], the “transcription inhibition activity (in words)” value was “strong increase in inhibition activity”. Further, the inhibition at 10 µM in the experiment on IMR32 cells amounted to 86.5%; in the experiment with HO15.19 cells, 77.8%.
The like results for `N#Cc1ccc(Cl)c(C(=O)NNc2ccc(C#N)cc2C(F)(F)F)c1` [compound 70698] were, in that order, “high transcription inhibition activity”, 35.4% and 27.3%.
The like results for `N#Cc1ccc(NNC(=O)c2ccc(F)c(I)c2)c(C(F)(F)F)c1` [compound 70726] were, in that order, “strong increase in inhibition activity”, 75.6% and 66.2%.
On to `N#Cc1ccc(NNC(=O)c2ccc(Br)c(Cl)c2)c(C(F)(F)F)c1` [compound 70635], for which the “transcription inhibition activity (in words)” value in experiment [1] is “strong increase in inhibition activity”. Moreover, the results for the inhibition at 10 µM in the experiment with IMR32 cells and in the experiment on HO15.19 cells were 7.5% and 11.8%, respectively.
The matching figures for `N#Cc1ccc(NNC(=O)c2cc(F)c(F)cc2Cl)c(C(F)(F)F)c1` [compound 70659]: “strong increase in inhibition activity”, 31% and 31.5%.
The like results for `N#Cc1ccc(NNC(=O)c2cc(OC(F)F)cc(OC(F)F)c2)c(C(F)(F)F)c1` [compound 70792] were, in that order, “maintained good transcription inhibition activity”, 84.9% and 79.5%.
The like results for `N#Cc1ccc(NNC(=O)c2cccc(I)c2)c(C(F)(F)F)c1` [compound 70703] were, in that order, “better inhibition activity”, 18.5% and 13.5%.
Turning to `N#Cc1ccc(NNC(=O)c2ccc(F)c(C#N)c2)c(C(F)(F)F)c1` [compound 70696], the “transcription inhibition activity (in words)” value in experiment [1] is listed as “strong increase in inhibition activity”. Moreover, the inhibition at 10 µM in the experiment on IMR32 cells came to 15.1%; in the experiment with HO15.19 cells it was 13.2%.
Take `N#Cc1ccc(NNC(=O)c2ccc(Cl)c(F)c2)c(C(F)(F)F)c1` [compound 70621]: the “transcription inhibition activity (in words)” value in experiment [1] is “good inhibition at both concentrations tested”. Also, the figures for the inhibition at 10 µM with IMR32 cells and in the experiment on HO15.19 cells were 98.8% and 68.6%, respectively.
The like results for `N#Cc1ccc(NNC(=O)c2cc(F)c(F)c(F)c2)c(C(F)(F)F)c1` [compound 70686] were, in that order, “strong increase in inhibition activity”, 82.2% and 75.8%.
Turning to `N#Cc1ccc(NNC(=O)c2ccc(SC(F)F)cc2)c(C(F)(F)F)c1` [compound 70682], the inhibition at 10 µM in the experiment with IMR32 cells is 11%; in the experiment on HO15.19 cells, 22.9%.
The like results for `N#Cc1cccc(C(=O)NNc2ccc(C#N)cc2C(F)(F)F)c1` [compound 70672] were, in that order, 18% and 8.1%.

The values above are taken from paper PMC8910697, “Development of VPC-70619, a Small-Molecule N-Myc Inhibitor as a Potential Therapy for Neuroendocrine Prostate Cancer” (International Journal of Molecular Sciences, 2022).
